Data published in patent publication US20250345453A1, “CHEMOTHERAPEUTIC MICELLULAR NANOPARTICLES” (Peptinovo Biopharma Inc., priority 2024, published 2025).

Columns and labels:
SK-OV-3 cells = test: Growth inhibition of SK-OV-3 cells, MTT assay after 72 hr; type: cell-based, human; settings: conjugates delivered in C-m-HDLs, SEQ ID NO: 35 peptide, solvent lyophilization, FIG. 12A
Description: In this Example, the mole portions of components in the C-m-HDLs prepared by solvent lyophilization were POPC: egg SM: peptide: conjugate 5.6:2.4:2:1. 20 mM stock solutions of POPC and of egg SM were prepared in tert-butyl alcohol: water (8:2 v/v). […] Conjugates 20 and 30 were separately dissolved in tert-butyl alcohol: water (95:5) to a final concentration of 10 mM.
For C-m-HDL preparation, 2.8 mL of 20 mM POPC, 1.2 mL of 20 mM egg SM, 2 mL of 10 mM peptide, 1 mL of 10 mM conjugate, and 0.3 mL acetic acid were combined in a 20 mL glass vial. The combined solution was frozen at ≥−70° C. for ≥1 hr. The frozen vial was placed in the chamber of a lyophilizer set at a shelf temperature of −20° C. A vacuum between 100 to 150 mTorr was applied for ≥20 hr. The shelf temperature was raised to −10° C. and the vacuum was continued for ≥15 hr. The shelf temperature was then raised to 20° C. and the vacuum continued for 24 hr. The dried cake was dissolved in PBS to obtain C-m-HDLs. The uniformity of the C-m-HDLs was evaluated by SEC (Acclaim™ SEC-1000, 300 mm×4.6 mm column, 0.3 mL/min PBS mobile phase, 210 nm and 280 nm UV detection) and by dynamic light scattering. The phospholipid content was established with a commercially available, enzyme-based, colorimetric assay kit. Peptide and conjugate content were established by HPLC.
Two C-m-HDLs were prepared as above, containing either Conjugate 20 or Conjugate 30 were then tested for their growth inhibition activity against SK-OV-3 cells (ATCC). SK-OV-3 cells were grown in McCoy's-5A media supplemented with 10% fetal bovine serum and maintained in a 37° C. incubator under a 5% CO2 atmosphere. To assess growth inhibition, the growth medium of cells grown in 96-well plates was supplemented with various concentrations of C-m-HDL (cmpd 20), C-m-HDL (compd 30) or paclitaxel from a DMSO stock solution. The 96-well plates were incubated for 72 hr. The relative amount of live cells in each of the wells after 72 hr was determined with the MTT assay. […]

[1] = test system: female Sprague-Dawley rats; test: Adrenal gland functionality after dosing: plasma corticosterone after ACTH challenge; type: in vivo, rat; settings: paclitaxel in Cremophor EL/ethanol, 4 mg/kg intraperitoneally Days 1, 4, 7; FIG. 10
Description: A paclitaxel stock solution was prepared by dissolving paclitaxel in 1:1 (v/v) Cremophor EL/ethanol (95%) to a final paclitaxel concentration of […] (C-E paclitaxel solution). Next, a paclitaxel solution suitable for dosing was prepared by combining one volume of the C-E paclitaxel solution with 3 volumes of 0.9 weight % NaCl. This solution is designated as “Control”.
C-m-HDL (cmpd 20) was prepared as per Example 12.
Eighteen (18) female Sprague-Dawley rats were randomly assigned to 3 groups of 6 animals each. All animals were lightly anesthetized using isoflurane and dosed intraperitoneally on Days 1, 4, and 7 with paclitaxel at 4 mg/kg in a dose volume of 1.5 mL/kg, or intravenously with C-m-HDL (cmpd 20) at 4 mg/kg or vehicle (saline) via the tail vein using a dose volume of 1.5 mL/kg. Group I received saline, Group 2 received paclitaxel, and Group 3 received C-m-HDL (cmpd 20). On Day 11, rats in each group were lightly anesthetized using isoflurane within their home cage to minimize potential stress responses. Blood (˜200 μL) was collected into K3EDTA tubes prior to ACTH challenge (baseline). Rats were then challenged with a single intraperitoneal injection of ACTH (ACTH 1-24, Sigma-Aldrich A0298-1922) in normal saline at […] in a dose volume of 2 mL/kg. […] Plasma corticosterone content was determined with a commercially available ELISA kit.

Compound: Paclitaxel-δ-tocopherol conjugate with a cleavable carbonate bond [No. 82]
- SK-OV-3 growth inhibition activity, delta-tocotrienol versus delta-tocopherol anchor (SK-OV-3 cells; listed as paclitaxel-delta-tocopherol): essentially equivalent
- SK-OV-3 growth inhibition activity, delta-tocotrienol versus delta-tocopherol anchor (SK-OV-3 cells; listed as δ-tocopherol-paclitaxel): equivalent results

Compound: CC(=O)O[C@H]1C(=O)[C@@]2(C)[C@H]([C@H](OC(=O)c3ccccc3)[C@]3(O)C[C@H](OC(=O)[C@H](O)[C@@H](NC(=O)c4ccccc4)c4ccccc4)C(C)=C1C3(C)C)[C@]1(OC(C)=O)CO[C@@H]1C[C@@H]2O [paclitaxel]
- adrenal toxicity (plasma corticosterone after ACTH challenge) [1]: lack of adrenal toxicity

Compound: CC(=O)O[C@H]1C(=O)[C@@]2(C)[C@H]([C@H](OC(=O)c3ccccc3)[C@]3(O)C[C@H](OC(=O)[C@H](OC(=O)Oc4cc(C)c5c(c4)CC[C@@](C)(CC/C=C(\C)CC/C=C(\C)CCC=C(C)C)O5)[C@@H](NC(=O)c4ccccc4)c4ccccc4)C(C)=C1C3(C)C)[C@]1(OC(C)=O)CO[C@@H]1C[C@@H]2O [Conjugate 20, paclitaxel-delta-tocotrienol conjugate]
- SK-OV-3 growth inhibition activity, delta-tocotrienol versus delta-tocopherol anchor (SK-OV-3 cells): equivalent results
- SK-OV-3 growth inhibition activity, delta-tocotrienol versus delta-tocopherol anchor (SK-OV-3 cells; listed as paclitaxel-delta-tocotrienol): essentially equivalent
